Values quoted from earlier work as cited in article PMC4744661 (Diabetes/Metabolism Research and Reviews, 2015).

Tested on: gastric emptying
Details: healthy volunteers and patients with T2DM

| Substance | effect on gastric emptying / acetaminophen exposure |
| --- | --- |
| liraglutide (HAEGTFTSDVSSYLEGQAAKEFIAWLVRGRG; chains of the INN, looked up) | equivalent effects on acetaminophen exposure |
| exenatide [exenatide BID] | substantially slowed gastric emptying |
